[FANA] = 2'-fluoro-arabino; d = 2'-deoxy (DNA)
How the values were obtained:
Type in all cases: cell-based, human
WRN fibroblasts = assay: Quantitative mass spectrometry proteome analysis in WRN fibroblasts
Method: (§1) Total protein extracts were prepared with RIPA buffer (50mMTris-cl pH 8.0, 5 mM EDTA, 150 mM Nacl, 15 mM Mgcl2, 1% NP-40, 1 mM PMSF and 1× Protease Inhibitor Cocktail (PIC)). Further, a sonication step was included: (30S ON, 30S OFF, 10 cycles with Bioruptor). Equal […] protein extracts were concentrated to […] volume, then diluted in 8M urea in 0.1M Tris-HCl, followed by protein digestion with trypsin, according to the FASP protocol(66). After an overnight digestion, the peptides were eluted from the filters with 25 mM ammonium bicarbonate buffer. The eluted peptides were processed in the desalting step by using Sep-Pag C18 Column (waters) based on the manufacture's instruction. Approximately 200 ng of peptide mixture per sample was analyzed using a timsTOF Pro 2 QTOF mass spectrometer coupled with a nanoElute liquid chromatography system (Bruker Daltonik GmbH, Germany). The sample was injected directly into a RP-C18 Aurora emitter column (75 μm i.d.×250 mm, 1.6 μm, 120 Å pore size) (Ion Opticks, Australia) using a one-column separation method. An 80-min gradient was established using mobile phase A (0.1% FA in H2O) and mobile phase B (0.1% FA in Acetonitrile): 2-25% B for 60 min, 25-37% for 10 min, ramping 37% to 95% in 5 min, and maintaining 95% B for 5 min. The column temperature was set at 50° C. and the flow rate at 250 nl/min. […]

HGPS fibroblasts = assay: Quantitative mass spectrometry proteome analysis in HGPS fibroblasts
Method: as §1

WRN hMSCs = assay: Comparison of 3TC and L1 translation blocker with L1 RNA depletion in WRN hMSCs (senescence gene qPCR, immuno-FISH, SA-β-gal); conditions: 3TC 10 mM, translation inhibitor ASOs 20 nM
Method: (§2) Tail tip fibroblasts (TTFs) were isolated from WT and LAKI mice and cultured at 37° C. in Dulbecco's Modified Eagle Medium (DMEM) (Invitrogen) containing Gluta-MAX, non-essential amino acids, and 10% fetal bovine serum (FBS, Gibco). WT and HGPS human dermal fibroblast were obtained from Coriell Biobank (WT: AG06234, AG10108, AG09309, AG10803, AG03257. HGPS: AG06917, AG11498, AG10578, AG11572, AG06297. APS: AG041100 (LMNA E578V), AG00989 (LMNA R644C), AG00990 (LMNA T10I), AG09233 (unknown mutation). WRN: AG12798; AG24467; AG06300; AG00780; AG05229). For LINE-1 knockdown, cells were incubated with 1 μM FANA ASO dissolved in culture medium (61) every 4 days and collected after two passages for senescent marker expression or immunohistochemistry. 3TC (Sigma-Aldrich) treatments were performed at 10 mM as in De Cecco et al. (11). Translation inhibitor ASOs (miRCURY LNA, Qiagen) were used at a final concentration of 20 nM and transfected with RNAiMAX (Invitrogen, Thermo Fisher Scientific) following manufacturer instructions. […]
(§3) Cells were fixed with 4% formaldehyde in PBS at room temperature (RT) for 10 min. […] Z-stack 3D reconstruction, nuclei segmentation, and fluorescence signal quantification were performed using Imaris (v.8.4.1) using nuclei volume as a reference to normalize fluorescence signals. […]

HGPS hMSCs = assay: Comparison of 3TC and L1 translation blocker with L1 RNA depletion in HGPS hMSCs (senescence gene qPCR, immuno-FISH, SA-β-gal); conditions: 3TC 10 mM, translation inhibitor ASOs 20 nM
Method: as §2, §3

Compound | protein differential expression (quantitative mass spectrometry) (WRN fibroblasts) | protein differential expression (quantitative mass spectrometry) (HGPS fibroblasts) | anti-aging effect (senescence-associated gene expression, H3K9me3, SA-β-gal positive cells) (WRN hMSCs) | anti-aging effect (senescence-associated gene expression, H3K9me3, SA-β-gal positive cells) (HGPS hMSCs)
A*C*T* T*C*C CTT CTC GCT TC*A*T*T*T* (ACTTCCCTTCTCGCTTCATTT; sugars from the 5' end [FANA]5 d11 [FANA]5, backbone and methylation of C not given here; listed as Homo sapiens) [human L1 2′F-ANA ASO #1, L1-specific 2′F-ANA modified ASO used in all human cell experiments; * denotes 2′F-ANA modified nucleotides] | ameliorated the aged phenotype also at proteome global level | ameliorated the aged phenotype also at proteome global level | – | –
Nc1ccn([C@@H]2CS[C@H](CO)O2)c(=O)n1 [3TC] | – | – | less potent anti-aging effect compared to L1 RNA depletion | no effect
